In PMC4972190, “In vitro activity of salinomycin and monensin derivatives against Trypanosoma brucei” (Parasites & Vectors, 2016):
≈ marks a conversion by molar mass, not a printed value. Like-named read-outs stand apart in the source and are kept apart here.

Legend:
[1] = system: Bloodstream forms of T. brucei (clone 427-221a); test: Toxicity assay (resazurin, 72 h) on bloodstream forms of T. brucei; format: cell-based, Trypanosoma brucei; details: for Selectivity GI50 ratio: GI50(HL-60)/GI50(T. brucei); for Selectivity MIC ratio: MIC(HL-60)/MIC(T. brucei); for GI50 / MIC: 72 h; for MIC: concentration at which all cells were killed, determined microscopically, mean of three experiments
Method: (§1) Bloodstream forms of T. brucei (clone 427-221a) and human myeloid leukaemia HL-60 cells were grown in Baltz medium and RPMI medium, respectively. Both culture media were supplemented with 16.7 % (v/v) heat-inactivated foetal calf serum. All cultures were maintained in a humidified atmosphere containing 5 % CO2 at 37 °C.
(§2) Cells were seeded in 96-well plates in a final volume of 200 μl of their respective culture medium containing 10-fold serial dilutions of ionophore derivatives (10^-4 to 10^-10 M) and 1 % DMSO. Wells containing medium and 1 % DMSO served as controls. The initial cell densities were 1 × 10^4/ml for T. brucei and 1 × 10^5/ml for HL-60 cells. After 24 h incubation at 37 °C in a humidified atmosphere containing 5 % CO2, 20 μl of a 0.44 mM resazurin solution prepared in PBS was added and the cells were incubated for a further 48 h so that the total incubation time was 72 h. Thereafter, the plates were read on a microplate reader using a test wavelength of 570 nm and a reference wavelength of 630 nm. The 50 % growth inhibition (GI50) value, i.e. the concentration of a compound necessary to reduce the growth rate of cells by 50 % compared to the control was determined by linear interpolation according to the method described in [22]. The minimum inhibitory concentration (MIC) values, i.e. the concentration of the drug at which all trypanosome and human cells were killed, was determined microscopically. Each compound was independently tested three times.

[2] = system: human myeloid leukaemia HL-60 cells; test: Toxicity assay (resazurin, 72 h) on HL-60 cells; format: cell-based; details: for MIC: determined microscopically, mean of three experiments; for GI50: Homo sapiens
Method: as §1, §2

[3] = system: bloodstream forms of T. brucei; test: Measurement of changes in cell volume by light scattering; format: cell-based, Trypanosoma brucei; details: 100 μM; 5 × 10^7 cells/ml; measured every 15 min; decrease in absorbance = increase in cell volume
Method: Change in cell volume was determined by light scattering as previously described. In brief, bloodstream forms of T. brucei were seeded at a density of 5 × 10^7 cells/ml in 96-well plates in a final volume of 200 μl culture medium containing 100 μM of salinomycin or the salonimycin derivatives SAL-E7 or SAL-AM2 and 1 % DMSO. Absorbance of the cultures was measured at 490 nm every 15 min. A decrease in absorbance corresponded to an increase in cell volume. The experiment was repeated three times.
Change in cell volume can be measured by light scattering at 450–550 nm whereby a decrease in absorbance indicates swelling of cells. In order to be able to record measurable absorbance changes, a high cell density is required. […] However, the derivatives caused a slightly faster swelling of the cells than salinomyicn. […] During further incubation, trypanosomes increased their cell volume but cell swelling was much slower and much less. […] However, it seems that the transport efficiency determines the trypanocidal potency of salinomycin derivatives.
Fig. 3 Effect of salinomycin derivatives on the cell volume of bloodstream forms of T. brucei. […] Every 15 min, the absorbance at 490 nm was measured. […] Note that a decrease in absorbance corresponds to an increase in cell volume

human nasal mucosa cells = system: human nasal mucosa cells; set-up: method as in PMID 23517602, PMID 25769976; details: read-out: 50 % effective concentration (cytotoxicity); cited from earlier work
[4] = system: Bloodstream forms of T. brucei (clone 427-221a); set-up: method as in PMID 23517602; details: human cells vs bloodstream forms of T. brucei; cited from earlier work
[5] = system: human peripheral blood mononuclear cells; set-up: method as in PMID 23517602, PMID 25769976; details: read-out: 50 % effective concentration (cytotoxicity); cited from earlier work
[6] = Trypanosoma brucei, T. brucei bloodstream forms
[7] = Trypanosoma brucei, T. brucei bloodstream forms, read-out: MIC
[8] = Trypanosoma brucei, T. brucei bloodstream forms, resazurin, mean ± SD of three experiments, read-out: GI50
[9] = HL-60 cells, 72 h, resazurin, mean ± SD of three experiments, read-out: GI50

| SMILES | Selectivity GI50 ratio [1] | Selectivity MIC ratio [1] | GI50 ([1]; Trypanosoma brucei) [µM] | MIC [1, 6] [µM] | MIC ([2]; HL-60 cells, 72 h) [µM] | GI50 ([2]; HL-60, 72 h) [µM] | MIC ([1]; T. brucei bloodstream forms) [µM] | MIC ([1]; T. brucei bloodstream forms, listed as salinomycin n-butyl amide) | MIC ([1]; T. brucei bloodstream forms, read-out: MIC) [µM] | Effect on cell volume (absorbance at 490 nm) [3] | MIC [1, 7] [µM] | GI50 [1, 8] [µM] | GI50 [2, 9] [µM] | EC50 (human nasal mucosa cells) [µM] | selectivity (cytotoxic/trypanocidal ratio) [4] | EC50 [5] [µM] |
| --- | --- | --- | --- | --- | --- | --- | --- | --- | --- | --- | --- | --- | --- | --- | --- | --- |
| CCCCOC(=O)C(CC)C1CCC(C)C(C(C)C(O)C(C)C(=O)C(CC)C2OC3(C=CC(O)C4(CCC(C)(C5CCC(O)(CC)C(C)O5)O4)O3)C(C)CC2C)O1 (centres unmarked) [SAL-E4] | 10.5 | 10 | 3.12 ± 0.08 | 10 (≈ 8.07 µg/mL) | 100 (≈ 80.7 µg/mL) | 32.9 ± 2.5 | – | – | – | – | – | – | – | – | – | – |
| CCC1(C2OC(C3OC(O)(CO)C(C)CC3C)CC2C)CCC(C2(C)CCC3(CC(O)C(C)C(C(C)C(OC)C(C)C(=O)OCCO)O3)O2)O1 (centres unmarked) [MON-E2] | 9.2 | 10 | 2.76 ± 0.1 | 10 (≈ 7.15 µg/mL) | 100 (≈ 71.5 µg/mL) | 25.3 ± 5 | – | – | – | – | – | – | – | – | – | – |
| CCC(C(=O)OCCO)C1CCC(C)C(C(C)C(O)C(C)C(=O)C(CC)C2OC3(C=CC(O)C4(CCC(C)(C5CCC(O)(CC)C(C)O5)O4)O3)C(C)CC2C)O1 (centres unmarked) [SAL-E2] | 10.6 | 10 | 3.25 ± 0.26 | 10 (≈ 7.95 µg/mL) | 100 (≈ 79.5 µg/mL) | 34.6 ± 1.9 | – | – | – | – | – | – | – | – | – | – |
| CCCCNC(=O)C(CC)C1CCC(C)C(C(C)C(O)C(C)C(=O)C(CC)C2OC3(C=CC(O)C4(CCC(C)(C5CCC(O)(CC)C(C)O5)O4)O3)C(C)CC2C)O1 (centres unmarked) [SAL-AM2, salinomycin n-butyl amide] | greater than 250 | – | 0.04 ± 0.007 | – | 100 (≈ 80.6 µg/mL) | 14.5 ± 1.3 | 0.1 to 1 | below 1 μM | 0.1 (≈ 0.0806 µg/mL) | cell swelling similar to parasites treated with salinomycin | – | – | – | – | – | – |
| C=CCOC(=O)C(CC)C1CCC(C)C(C(C)C(O)C(C)C(=O)C(CC)C2OC3(C=CC(O)C4(CCC(C)(C5CCC(O)(CC)C(C)O5)O4)O3)C(C)CC2C)O1 (centres unmarked) [SAL-E3] | 10.9 | 10 | 3.1 ± 0.21 | 10 (≈ 7.91 µg/mL) | 100 (≈ 79.1 µg/mL) | 33.8 ± 3.5 | – | – | – | – | – | – | – | – | – | – |
| CCC(C(=O)OCc1ccccc1)C1CCC(C)C(C(C)C(O)C(C)C(=O)C(CC)C2OC3(C=CC(O)C4(CCC(C)(C5CCC(O)(CC)C(C)O5)O4)O3)C(C)CC2C)O1 (centres unmarked) [SAL-E5] | – | 10 | 3.21 ± 0.02 | 10 (≈ 8.41 µg/mL) | 100 (≈ 84.1 µg/mL) | 38.4 ± 4.2 | – | – | – | – | – | – | – | – | – | – |
| CCC(C(=O)NCCc1ccc(F)cc1)C1CCC(C)C(C(C)C(O)C(C)C(=O)C(CC)C2OC3(C=CC(O)C4(CCC(C)(C5CCC(O)(CC)C(C)O5)O4)O3)C(C)CC2C)O1 (centres unmarked) [SAL-AM5] | 14.6 | 10 | 2.69 ± 0.2 | 10 (≈ 8.72 µg/mL) | 100 (≈ 87.2 µg/mL) | 39.2 ± 1.6 | – | – | – | – | – | – | – | – | – | – |
| CCC(C(=O)NCc1ccccc1)C1CCC(C)C(C(C)C(O)C(C)C(=O)C(CC)C2OC3(C=CC(O)C4(CCC(C)(C5CCC(O)(CC)C(C)O5)O4)O3)C(C)CC2C)O1 (centres unmarked) [SAL-AM3] | 2.7 | 10 | 2.94 ± 0.2 | 10 (≈ 8.4 µg/mL) | 100 (≈ 84 µg/mL) | 7.92 ± 1.95 | – | – | – | – | – | – | – | – | – | – |
| CCC(C(=O)OC)C1CCC(C)C(C(C)C(O)C(C)C(=O)C(CC)C2OC3(C=CC(O)C4(CCC(C)(C5CCC(O)(CC)C(C)O5)O4)O3)C(C)CC2C)O1 (centres unmarked) [SAL-E1] | 11.4 | 10 | 3.08 ± 0.18 | 10 (≈ 7.65 µg/mL) | 100 (≈ 76.5 µg/mL) | 35.5 ± 2.4 | – | – | – | – | – | – | – | – | – | – |
| CCC(C(=O)NCCc1c[nH]c2ccccc12)C1CCC(C)C(C(C)C(O)C(C)C(=O)C(CC)C2OC3(C=CC(O)C4(CCC(C)(C5CCC(O)(CC)C(C)O5)O4)O3)C(C)CC2C)O1 (centres unmarked) [SAL-AM4] | 9.1 | 10 | 2.69 ± 0.51 | 10 (≈ 8.93 µg/mL) | 100 (≈ 89.3 µg/mL) | 24.5 ± 3.7 | – | – | – | – | – | – | – | – | – | – |
| C=CCNC(=O)C(CC)C1CCC(C)C(C(C)C(O)C(C)C(=O)C(CC)C2OC3(C=CC(O)C4(CCC(C)(C5CCC(O)(CC)C(C)O5)O4)O3)C(C)CC2C)O1 (centres unmarked) [SAL-AM1] | 12.0 | 10 | 3.23 ± 0.21 | 10 (≈ 7.9 µg/mL) | 100 (≈ 79 µg/mL) | 38.9 ± 3.2 | – | – | – | – | – | – | – | – | – | – |
| CCC1(C2OC(C3OC(O)(CO)C(C)CC3C)CC2C)CCC(C2(C)CCC3(CC(O)C(C)C(C(C)C(OC)C(C)C(=O)OCCOCCOC)O3)O2)O1 (centres unmarked) [MON-E3] | 12.1 | 10 | 1.68 ± 0.56 | 10 (≈ 7.73 µg/mL) | 100 (≈ 77.3 µg/mL) | 20.3 ± 3.1 | – | – | – | – | – | – | – | – | – | – |
| Cc1ccc(C(=O)Nc2ccc(S(=O)(=O)O)c3cc(S(=O)(=O)O)cc(S(=O)(=O)O)c23)cc1NC(=O)c1cccc(NC(=O)Nc2cccc(C(=O)Nc3cc(C(=O)Nc4ccc(S(=O)(=O)O)c5cc(S(=O)(=O)O)cc(S(=O)(=O)O)c45)ccc3C)c2)c1 [Suramin, suramin, reference compound] | > 2857 | > 1000 | – | – | > 100 | – | – | – | – | – | 0.1 (≈ 0.13 µg/mL) | 0.035 ± 0.002 | > 100 | – | – | – |
| CC[C@@]1([C@@H]2O[C@@H]([C@H]3O[C@@](O)(CO)[C@H](C)C[C@@H]3C)C[C@@H]2C)CC[C@H]([C@]2(C)CC[C@]3(C[C@H](O)[C@@H](C)[C@@H]([C@@H](C)[C@@H](OC)[C@H](C)C(=O)O)O3)O2)O1 [Monensin, monensin] | 51 | 100 | – | – | 10 (≈ 6.71 µg/mL) | – | – | – | – | – | 0.1 (≈ 0.0671 µg/mL) | 0.029 ± 0.002 | 1.48 ± 0.56 | – | – | – |
| CCC1(C2OC(C3OC(O)(CO)C(C)CC3C)CC2C)CCC(C2(C)CCC3(CC(O)C(C)C(C(C)C(OC)C(C)C(=O)OC)O3)O2)O1 (centres unmarked) [MON-E1] | 11.1 | 10 | 3.06 ± 0.06 | 10 (≈ 6.85 µg/mL) | 100 (≈ 68.5 µg/mL) | 34.1 ± 2.2 | – | – | – | – | – | – | – | – | – | – |
| C=CCNC(=O)OCC1(O)OC(C2CC(C)C(C3(CC)CCC(C4(C)CCC5(CC(O)C(C)C(C(C)C(OC)C(C)C(=O)O)O5)O4)O3)O2)C(C)CC1C (centres unmarked) [MON-UR1] | 75 | 100 | 0.31 ± 0.06 | 1 (≈ 0.754 µg/mL) | 100 (≈ 75.4 µg/mL) | 23.3 ± 6.6 | – | – | – | – | – | – | – | – | – | – |
| CC[C@@H](C(=O)[C@@H](C)[C@@H](O)[C@H](C)[C@@H]1O[C@@H]([C@@H](CC)C(=O)O)CC[C@@H]1C)[C@H]1O[C@]2(C=C[C@@H](O)[C@]3(CC[C@@](C)([C@H]4CC[C@](O)(CC)[C@H](C)O4)O3)O2)[C@H](C)C[C@@H]1C [Salinomycin, salinomycin] | 2.4 | 1 | 0.18 ± 0.06 | 1 (≈ 0.751 µg/mL) | 1 (≈ 0.751 µg/mL) | 0.44 ± 0.21 | – | – | – | continued to swell until the end of experiment | – | – | – | 11 | < 100 | 30 |
